Test results as given in ChEMBL document CHEMBL1201862, “PubChem BioAssay data set” (2004).
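Five concentrations, 48 hours, 96-well plates. GI50: concentration for 50% inhibition of growth.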 Activity calls are given as the source filed them. Cut-off read from the data, not from the text of the source: active = GI50 up to about 1.1 µM and inactive = higher.

Experiments:
Test in all cases: inhibition of tumour cell growth, NCI panel, 48 h
UACC-62 = system: UACC-62
SNB-75 = system: SNB-75
M14 = system: M14
HT-29 = system: HT-29
HCC 2998 = system: HCC 2998
HL-60 = system: HL-60
NCI-H460 = system: NCI-H460
LOX IMVI = system: LOX IMVI
OVCAR-3 = system: OVCAR-3
786-0 = system: 786-0
DU-145 = system: DU-145
HCT-116 = system: HCT-116
MDA-MB-435 = system: MDA-MB-435
Malme-3M = system: Malme-3M
SN12C = system: SN12C
MOLT-4 = system: MOLT-4
K562 = system: K562
SW-620 = system: SW-620
KM12 = system: KM12
IGROV-1 = system: IGROV-1
CCRF-CEM = system: CCRF-CEM
SF-539 = system: SF-539
Hs-578T = system: Hs-578T
NCI-H226 = system: NCI-H226
MCF7 = system: MCF7
OVCAR-8 = system: OVCAR-8
MDA-MB-231 = system: MDA-MB-231
RPMI-8226 = system: RPMI-8226
UACC-257 = system: UACC-257
SF-295 = system: SF-295
SK-MEL-28 = system: SK-MEL-28
NCI-H23 = system: NCI-H23
NCI/ADR-RES = system: NCI/ADR-RES
PC-3 = system: PC-3
CAKI-1 = system: CAKI-1
MDA-N = system: MDA-N
T47D = system: T47D
NCI-H522 = system: NCI-H522
SK-MEL-5 = system: SK-MEL-5
EKVX = system: EKVX
COLO 205 = system: COLO 205
SNB-19 = system: SNB-19
UO-31 = system: UO-31
ACHN = system: ACHN
HOP-62 = system: HOP-62
A549 = system: A549
RXF 393 = system: RXF 393
TK-10 = system: TK-10
OVCAR-5 = system: OVCAR-5
SF-268 = system: SF-268
HCT-15 = system: HCT-15
U-251 = system: U-251
SR = system: SR
A498 = system: A498
SK-MEL-2 = system: SK-MEL-2
HOP-92 = system: HOP-92
OVCAR-4 = system: OVCAR-4
SK-OV-3 = system: SK-OV-3

Measured: GI50

COc1cc2c(c(OC)c1OC)C(=O)[C@@H](O)[C@H]2NC(N)=O
inactive: UACC-62 83.4 µM | SNB-75 > 100 µM | M14 > 100 µM | HT-29 > 100 µM | HCC 2998 > 100 µM | HL-60 > 100 µM | NCI-H460 > 100 µM | LOX IMVI > 100 µM | OVCAR-3 > 100 µM | 786-0 > 100 µM | DU-145 > 100 µM | HCT-116 > 100 µM | MDA-MB-435 > 100 µM | Malme-3M > 100 µM | SN12C > 100 µM | MOLT-4 > 100 µM | K562 > 100 µM | SW-620 > 100 µM | KM12 > 100 µM | IGROV-1 > 100 µM | CCRF-CEM > 100 µM | SF-539 > 100 µM | Hs-578T > 100 µM | NCI-H226 > 100 µM | MCF7 > 100 µM | OVCAR-8 > 100 µM | MDA-MB-231 > 100 µM | RPMI-8226 > 100 µM | UACC-257 > 100 µM | SF-295 > 100 µM | SK-MEL-28 > 100 µM | NCI-H23 > 100 µM | NCI/ADR-RES > 100 µM | PC-3 > 100 µM | CAKI-1 > 100 µM | MDA-N > 100 µM | T47D 31.6 µM | NCI-H522 > 100 µM | SK-MEL-5 > 100 µM | EKVX > 100 µM | COLO 205 > 100 µM | SNB-19 > 100 µM | UO-31 > 100 µM | ACHN > 100 µM | HOP-62 > 100 µM | A549 > 100 µM | RXF 393 > 100 µM | TK-10 > 100 µM | OVCAR-5 > 100 µM | SF-268 > 100 µM | U-251 > 100 µM
> 100 µM: HCT-15

CSC1=N/C(=C\c2ccccc2)C(=O)N1CN1CCCCC1
inactive: UACC-62 58.3 µM | SNB-75 56.1 µM | M14 61.7 µM | HT-29 22.5 µM | SR 31.3 µM | LOX IMVI 38.5 µM | A498 77.8 µM | OVCAR-3 > 100 µM | 786-0 42.2 µM | SK-MEL-2 > 100 µM | DU-145 > 100 µM | HCT-116 33.2 µM | MDA-MB-435 49.7 µM | Malme-3M 54.5 µM | SN12C > 100 µM | MOLT-4 37.5 µM | K562 26.7 µM | SW-620 44.4 µM | KM12 65 µM | IGROV-1 38.7 µM | CCRF-CEM 52.5 µM | HOP-92 11.7 µM | Hs-578T 36.4 µM | NCI-H226 35.7 µM | MCF7 24.6 µM | OVCAR-8 30.1 µM | MDA-MB-231 86.3 µM | RPMI-8226 27.4 µM | SF-295 > 100 µM | SK-MEL-28 > 100 µM | NCI-H23 76.6 µM | NCI/ADR-RES 20 µM | PC-3 55.5 µM | MDA-N 88.3 µM | NCI-H522 42.3 µM | SK-MEL-5 43.1 µM | EKVX 51.1 µM | OVCAR-4 16.4 µM | COLO 205 65.5 µM | SNB-19 46.1 µM | UO-31 39.5 µM | SK-OV-3 > 100 µM | ACHN 34.9 µM | HOP-62 > 100 µM | A549 87.7 µM | TK-10 99.3 µM | OVCAR-5 > 100 µM | SF-268 55.5 µM | U-251 72.6 µM
> 10 µM: HCT-15
